Format in all cases: in vivo
Test [1] deals with giant foxtail (Setaria faberi Herrm.). Briefly: Test Example 5, foliar treatment versus Reference Compounds. The settings on record: 4.0 to 4.5 leaf stage, 20th day after application, read-out: Growth inhibition rate (%) (20th day after application) Giant foxtail. An excerpt:
(§1) Upland field soil was put into a 1/1,000,000 hectare pot, and seeds of various plants were sown. When the respective plants reached predetermined leaf stage ((1) velvetleaf (Abutilon theophrasti MEDIC.): 3.0 to 3.5 leaf stage, (2) giant foxtail (Setaria faberi Herrm.): 4.0 to 4.5 leaf stage, (3) green foxtail (Setaria viridis L.): 5.0 to 5.5 leaf stage, and (4) corn (Zea mays L.): 4.0 to 4.3 leaf stage, a wettable powder of compound No. 2-1 of the above-mentioned present invention, a wettable powder of the above-mentioned Reference Compound 1 and a wettable powder of the above-mentioned Reference Compound 2, prepared in accordance with a conventional preparation method, were weighed so that the active ingredients became the prescribed amounts, and diluted with water in an amount corresponding to 300 liter per 1 hectare (containing 0.5 vol % of an agricultural spreader (Destiny HC: WINFIELD SOLUTIONS by LLC). The spray solutions thus prepared were applied for foliar treatment by a small sprayer.
(§2) On the 7th to 20th day after application, the state of growth of the respective plants was visually observed, and the herbicidal effect was evaluated by a growth inhibition rate (%) of 0 (equivalent to the non-treated area) to 100% (complete kill).

The subject of test [2] is green foxtail (Setaria viridis L.). The test is described as above. The settings on record: 5.0 to 5.5 leaf stage, 18th day after application, read-out: Growth inhibition rate (%) (18th day after application) Green foxtail.
From the text: as §1, §2

Test [3] relates to velvetleaf (Abutilon theophrasti MEDIC.). The test is described as above. The settings on record: 3.0 to 3.5 leaf stage, 20th day after application, read-out: Growth inhibition rate (%) (20th day after application) Velvet leaf.
From the text: as §1, §2

The subject of test [4] is sorgo (Sorghum bicolor Moench) (var.: Lucky Sorgo). The test is described as follows: Test Example 6, soil column downward movement, sorgo bioassay. The settings on record: 14th day after sowing. On the procedure: Soil (sterilized soil:sand=3:1) was packed (4 L) into a column (9.5 cm in diameter×40 cm in height, application area: 0.007 m^2), and tap water was dropped from above by a Peristaltic pump before application of the herbicide for the purpose of maintaining the soil moisture to be uniform. Then, 10 mL of a spray solution prepared so that each agent (Compound No. 2-1, the above Reference Compounds 1 and 2) would be at a concentration corresponding to 250 g/ha was dropwise applied by a pipette. After application, water was dropped again at a rate of 400 mL/hr for about 3 hours by means of a Peristaltic pump. After the dropping, the column was left to stand for 1 day, and then the column was vertically evenly divided and seeds of sorgo (Sorghum bicolor Moench) (var.: Lucky Sorgo) were sown in a row. On the 14th day after sowing, the state of growth of the plant was visually observed at 3 cm intervals from the application point of the agent, whereby the germination and the degree of growth were evaluated by a growth inhibition rate (%) of 0 (equivalent to the non-treated area) to 100% (complete kill) to obtain the results in Table 17.
From the above results, the growth inhibition rates of Reference Compounds No. 1 and No. 2 are observed in depths deeper than that of Compound No. 2-1. […] Whereas, Compound No. 2-1 stayed at a shallow portion of soil (in a layer of from 0 to 9 cm).

The next test concerns corn (Zea mays L.). The test is described as follows: Test Example 5, foliar treatment versus Reference Compounds. The settings on record: 4.0 to 4.3 leaf stage, 7th day after application, read-out: Growth inhibition rate (%) (7th day after application) Corn.
From the text: as §1, §2

Where [5] appears, read: depth 0-3 cm, read-out: Growth inhibition rate (%) against sorgo, Depth (cm) from the applied surface 0-3.
The mark [6] stands for this setting: depth 3-6 cm, read-out: Growth inhibition rate (%) against sorgo, Depth (cm) from the applied surface 3-6.
The mark [7] stands for this setting: depth 6-9 cm, read-out: Growth inhibition rate (%) against sorgo, Depth (cm) from the applied surface 6-9.
Where [8] appears, read: depth 9-12 cm, read-out: Growth inhibition rate (%) against sorgo, Depth (cm) from the applied surface 9-12.
The mark [9] stands for this setting: depth 12-15 cm, read-out: Growth inhibition rate (%) against sorgo, Depth (cm) from the applied surface 12-15.
[10] abbreviates: depth 15-18 cm, read-out: Growth inhibition rate (%) against sorgo, Depth (cm) from the applied surface 15-18.
Setting [11] is: depth 18-21 cm, read-out: Growth inhibition rate (%) against sorgo, Depth (cm) from the applied surface 18-21.
Where [12] appears, read: depth 21-24 cm, read-out: Growth inhibition rate (%) against sorgo, Depth (cm) from the applied surface 21-24.
Setting [13] is: depth 24-27 cm, read-out: Growth inhibition rate (%) against sorgo, Depth (cm) from the applied surface 24-27.
Where [14] appears, read: depth 27-30 cm, read-out: Growth inhibition rate (%) against sorgo, Depth (cm) from the applied surface 27-30.

Our source for the inhibition values is US8466089B2, “Pyrazole compounds, process for their production and herbicides containing them” (Ishihara Sangyo Kaisha, Ltd., priority 2008, dated 2013).

Read-outs that look alike come from different tables or passages of the source.

Take `CCn1ncc(C(=O)c2ccc(S(C)(=O)=O)c(OCCOC)c2Cl)c1O` [Reference Compound 1]: the inhibition at 3.5 g/ha in test [1] came to 30%; in test [3] it was 45%. Besides, in test [2], the inhibition at 7 g/ha stood at 40%. The inhibition at 250 g/ha in test [4] (setting [5]) came out at 58%; in test [4] (setting [6]), 58%; in test [4] (setting [7]), 58%; in test [4] (setting [8]), 60%; in test [4] (setting [9]), 53%; in test [4] (setting [10]) it was 35%. Also, the inhibition at 250 g/ha in test [4] (setting [11]) was 28%; in test [4] (setting [12]) it was 30%; in test [4] (setting [13]) it was 28%; in test [4] (setting [14]) it was 15%.
`COCCOc1c(S(C)(=O)=O)ccc(C(=O)c2cnn(C(C)C)c2O)c1Cl` [Reference Compound 2]: the inhibition at 90 g/ha in the test on corn (Zea mays L.) is 25%. Moreover, the inhibition at 3.5 g/ha came out at 0% in test [1] and 50% in test [3]. In test [2], the inhibition at 7 g/ha came to 35%. Besides, the inhibition at 250 g/ha is 48% in test [4] (setting [5]); 45% in test [4] (setting [6]); 47% in test [4] (setting [7]); 43% in test [4] (setting [8]); 58% in test [4] (setting [9]); 55% in test [4] (setting [10]). Moreover, the inhibition at 250 g/ha was 61% in test [4] (setting [11]), 63% in test [4] (setting [12]), 35% in test [4] (setting [13]) and 8% in test [4] (setting [14]).
